We go through six compounds from US20210206763A1, “Anti-Proliferative Agents” (FEMTOGENIX LIMITED, priority 2015, published 2021).

In one series the test system is MCF-7 (HER2−). Briefly: In vitro cytotoxicity of ADCs. The following applies: Homo sapiens, MCF7; 72 hour incubation. Type of series: cell-based. How it is done: (§1) The resulting ADCs were evaluated in vitro against relevant antigen positive cell-lines.
The subject of series [1] is ZR75-1 (HER2++) (Trastuzumab resistant). Nature of the series: In vitro cytotoxicity of ADCs. Type of series: cell-based. The note with it: Homo sapiens, ZR-75-1; 72 hour incubation. How it is done:
as §1

A further series deals with SK-BR-3 (HER2+++). Nature of the series: In vitro cytotoxicity of ADCs. The note with it: Homo sapiens, 72 hour incubation. Type of series: cell-based. On the procedure: as §1
In another series the test system is HL60 (APML). Nature of the series: In vitro cytotoxicity of 41, cancer cell-line panel. Type of series: cell-based. The following applies: Homo sapiens, HL-60; 72 hour incubation. On the procedure:
(§2) Tumor cell lines were maintained in RPMI1640 medium supplemented with 10% heat-inactivated fetal bovine serum, 2 mM L-glutamine and 1 mM sodium pyruvate. 1800 cells per well were seeded in a volume of 180 μl in a 96-well flat bottom polystyrene plate. The cells were allowed to adhere overnight at 37° C. in a CO2 incubator. Ligands were initially formulated in DMSO, and stocks stored at −80° C. They were then further formulated at lox concentration in RPMI1640 medium. 20 ul of diluted samples were added into each treatment well. On each plate, blank wells with no cells, and untreated wells containing cells, were included. Plates were then cultured at 37° C. in a CO2 incubator for 72 hrs. Cytotoxicity was evaluated using a tetrazolium salt-based assay, the MIT assay. After 72 hours, the supernatant was removed from each well and 200 μl of a sterile filtered 500 μg/ml MTT solution in water added to each well. The plates were then incubated at 37° C. in a CO2 incubator for 4 hrs. The supernatant was then removed and the formazan crystals formed solubilized by adding 15(411 of DMSO to each well. The plate was then read on a plate reader at 540 nm, and percentage cell survival calculated as follows: ((mean absorbance treated wells at concentration x−mean absorbance blank wells)÷(mean absorbance untreated wells at concentration x−mean absorbance blank wells))×100. Data were plotted as concentration in nM vs. % cell survival in Microsoft Excel, and IC50 values (concentration where cell survival is reduced by a half) were determined from the graph.

A further series deals with SK-MEL-5 (Melanoma). The description is as above. The following applies: Homo sapiens, 72 hour incubation. Type of series: cell-based. On the procedure:
as §2

The subject of another series is A549 (Lung). The series is described as above. Type of series: cell-based. The following applies: Homo sapiens, 72 hour incubation. On the procedure:
as §2

In another series the test system is 786-O (Renal Cell, CD70). Described as above. Format: cell-based. The following applies: Homo sapiens, 786-0; 72 hour incubation. How it is done: as §2
The next series relates to Calu-3 (Lung). The series is described as above. Type of series: cell-based. The note with it: Homo sapiens, 72 hour incubation. On the procedure:
as §2

In the next series the test system is PC3 (Prostate). The series is described as above. Format: cell-based. The note with it: 72 hour incubation. How it is done: as §2
The test system of another series is AML2 (AML). The description is as above. Format: cell-based. The following applies: 72 hour incubation. On the procedure: as §2
In a further series the test system is SK-HEP-1 (Liver). The series is described as above. The note with it: Homo sapiens, SK-HEP1; 72 hour incubation. Format: cell-based. How it is done: as §2
A further series concerns AGS (Gastric). The series is described as above. Type of series: cell-based. The note with it: 72 hour incubation. How it is done: as §2
The test system of another series is SW480 (Colorectal). The series is described as above. Type of series: cell-based. The following applies: Homo sapiens, 72 hour incubation. How it is done:
as §2

A further series has as its system LnCap (Prostate). The description is as above. Type of series: cell-based. The note with it: Homo sapiens, 72 hour incubation. On the procedure: as §2
The test system of the next series is A375 (Skin). The description is as above. Format: cell-based. The following applies: Homo sapiens, A-375; 72 hour incubation. On the procedure: as §2
In a further series the test system is BxPC3 (Pancreas). The description is as above. Type of series: cell-based. The following applies: Homo sapiens, BXPC-3; 72 hour incubation. On the procedure: as §2
The subject of series [2] is EC Cancer Stem Cell (Cancer stem cells). Described as above. Format: cell-based. The following applies: 72 hour incubation. On the procedure:
as §2

Series [3] relates to fluorescently labelled DNA duplex 5′-AAAAAAAGAAATTTAAA-3′. Nature of the series: FRET DNA melting of fluorescently labelled duplex. The following applies: fragments of 41, FIG. 12B. Format: binding. The text has this: FRET DNA melting studies were undertaken on a fluorescently labelled duplex DNA sequence reacted with 41 and fragmented forms of the molecule (i.e, using intermediates 106, […] and 148). The sequence (FIG. 10) was designed to provide additional evidence that 41 can effectively stabilise a particular DNA sequence derived through the Footprinting studies (i.e., XGXWWWW where X represents any base, G represents guanine and W indicates adenine or thymine). […] The labels were fluorescein (F) and dabcyl (Q).
Oligonucleotides were obtained from ATDbio (Southampton, UK) in lyophilised form. They were labelled with a fluorophore molecule (F=fluorescein) at the 5′-end and a quencher molecule (Q=dabcyl) at the 3′-end of the complementary strand. Each oligonucleotide was dissolved in distilled H2O to form stock solutions of 100 μM. Working solutions of 5 μM were prepared by diluting the stock solution with distilled H2O.
The following buffers were used: 250 mM phosphate buffer pH 7.4 (consisting of sodium dihydrogen phosphate and sodium phosphate diluted in distilled H2O) and 5 M sodium chloride buffer. All buffers and distilled H2O were filtered through a 0.2 VIM filter prior to use.
For the FRET experiments stock solutions of 41, 106, 107 and 148 were prepared by dissolving the compounds in DMSO to give a concentration of 10 mM. From this stock solution, working solutions of the desired concentration were prepared by diluting the stock solution with distilled H2O.
The reaction mixture was comprised of 4 μL of 250 mM phosphate buffer (final concentration of 50 mM), 4 μL flourophor and 4 μL quencher molecule of the appropriate oligonucleotide for a final concentration of 0.2 μM, 4 μL 5 M sodium chloride (final concentration of 1 M NaCl), and 4 μL of distilled H2O. […] This mixture was analysed without prior annealing.
Fluorescence melting profiles were measured using a Roche LightCycler using a total reaction volume of 20 μL. […] Annealing steps and melting steps were all recorded and changes in fluorescence were measured at 520 nm. […]

For series [4] the following is noted: in vivo; cited from earlier work.

`COc1cc2c(cc1OCCCC(=O)Nc1cc(C(=O)Nc3ccc(-c4cc(C(=O)Nc5ccc(N)cc5)n(C)c4)cc3)n(C)c1)N=C[C@@H]1CCCCN1C2=O` [Compound 41, (S)—N-(4-aminophenyl)-4-(4-(4-(4-((2-methoxy-12-oxo-6a,7,8,9,10,12-hexahydrobenzo[e]pyrido[1,2-a][1,4]diazepin-3-yl)oxy)butanamido)-1-methyl-1H-pyrrole-2-carboxamido)phenyl)-1-methyl-1H-pyrrole-2-carboxamide]: the IC50 in the series with MCF-7 (HER2−) turned out to be 0.289 nM; in series [1], 0.63 nM; in the series on SK-BR-3 (HER2+++) it was 0.086 nM.

In the case of `COc1cc2c(cc1OCCCC(=O)Nc1cc(C(=O)Nc3ccc(-c4cc(C(=O)Nc5ccc(N)cc5)n(C)c4)cc3)n(C)c1)N=C[C@@H]1CCCCN1C2=O` [Compound 41], the IC50 was 9 pM with HL60 (APML); 0.39 nM in the series on SK-MEL-5 (Melanoma); 0.18 nM in the series on A549 (Lung); 0.53 nM in the series with 786-O (Renal Cell, CD70); 0.65 nM in the series with Calu-3 (Lung); 0.36 nM in the series on PC3 (Prostate). Further, the IC50 worked out at 0.016 nM in the series on AML2 (AML); 0.32 nM with SK-HEP-1 (Liver); 0.07 nM with AGS (Gastric); 0.29 nM with SW480 (Colorectal); 0.47 nM in the series on LnCap (Prostate); 0.28 nM with A375 (Skin). Besides, the IC50 in the series on BxPC3 (Pancreas) turned out to be 0.43 nM; in [2], 2.64 nM.

As for `COc1cc2c(cc1O)N=C[C@@H]1CCCCN1C2=O` [Compound 106, (S)-3-Hydroxy-2-methoxy-7,8,9,10-tetrahydrobenzo[e]pyrido[1,2-a][1,4]diazepin-12(6aH)-one], the “DNA stabilisation (FRET melting)” value in [3] is given as “little DNA stabilisation”.

Turning to `COc1cc2c(cc1OCCCC(=O)O)N=C[C@@H]1CCCCN1C2=O` [Compound 107, (S)-4-((2-Methoxy-12-oxo-6a,7,8,9,10,12-hexahydrobenzo[e]pyrido[1,2-a][1,4]diazepin-3-yl)oxy)butanoic acid], the “DNA stabilisation (FRET melting)” value in series [3] is recorded as “little DNA stabilisation”.

On to `Cn1cc(N)cc1C(=O)Nc1ccc(-c2cc(C(=O)Nc3ccc(N)cc3)n(C)c2)cc1` [Compound 148, 4-Amino-N-(4-(5-((4-aminophenyl)carbamoyl)-1-methyl-1H-pyrrol-3-yl)phenyl)-1-methyl-1H-pyrrole-2-carboxamide], for which the “DNA stabilisation (FRET melting)” value in series [3] is reported as “little DNA stabilisation”.

Take `C=C1C[C@H]2C=Nc3cc(OCCCOc4cc5c(cc4OC)C(=O)N4CC(=C)C[C@H]4C=N5)c(OC)cc3C(=O)N2C1` [SJG-136]: the “adverse effects in Phase I clinical evaluation” value in series [4] was “lower-limb edema and fatigue”.
